SMILES strings stand for the structures.

Results on 34 compounds are retold here after patent US7179823B1, “5-membered n-heterocyclic compounds with hypoglycemic and hypolipidemic activity” (Takeda Pharmaceutical Company Limited, priority 1999, dated 2007).

For the compound `CCOc1nn(Cc2ccc(OC)c(OCc3nc(-c4ccccc4)oc3C)c2)cc1CCC(=O)O` [Example 215, 3-[3-ethoxy-1-[4-methoxy-3-(5-methyl-2-phenyl-4-oxazolylmethoxy)benzyl]-1H-pyrazol-4-yl]propionic acid], the melting point (commonly the temperature of the solid-liquid transition) lay in the range of 136 to 137 °C.

For `CCOc1cc(Cn2cc(CCC(=O)O)c(OCC)n2)ccc1OCc1nc(-c2ccccc2)oc1C` [Example 217, 3-[3-ethoxy-1-[3-ethoxy-4-(5-methyl-2-phenyl-4-oxazolylmethoxy)benzyl]-1H-pyrazol-4-yl]propionic acid], the melting point was 105 to 106 °C.

`CCOC(=O)CCc1cn(Cc2cc(OCc3nc(-c4ccccc4)oc3C)no2)nc1OCC` [Example 218, ethyl 3-[3-ethoxy-1-[3-(5-methyl-2-phenyl-4-oxazolylmethoxy)-5-isoxazolylmethyl]-1H-pyrazol-4-yl]propionate] registered a melting point of 82 to 83 °C.

Turning to `CCOc1nn(Cc2cc(OCc3nc(-c4ccccc4)oc3C)no2)cc1CCC(=O)O` [Example 219, 3-[3-ethoxy-1-[3-(5-methyl-2-phenyl-4-oxazolylmethoxy)-5-isoxazolylmethyl]-1H-pyrazol-4-yl]propionic acid], the melting point is 142 to 143 °C.

Compound `CCOc1nn(Cc2ccc(OCCn3ncc4ccccc4c3=O)cc2)cc1CCC(=O)O` [Example 220, 3-[3-ethoxy-1-[4-[2-[1-oxophthalazin-2(1H)-yl]ethoxy]benzyl]-1H-pyrazol-4-yl]propionic acid] showed a melting point of 152 to 153 °C.

`CCOc1nn(Cc2cccc(OCCn3ncc4ccccc4c3=O)c2)cc1CCC(=O)O` [Example 221, 3-[3-ethoxy-1-[3-[2-[1-oxophthalazin-2(1H)-yl]ethoxy]benzyl]-1H-pyrazol-4-yl]propionic acid] displayed a melting point of 146 to 147 °C.

In the case of `CCOc1nn(Cc2cccc(OCc3nc(-c4ccccc4)oc3C)n2)cc1CCC(=O)O` [Example 223, 3-[3-ethoxy-1-[6-(5-methyl-2-phenyl-4-oxazolylmethoxy)-2-pyridylmethyl]-1H-pyrazol-4-yl]propionic acid], the melting point lay within 144 to 145 °C.

`CCOC(=O)CCc1cn(Cc2ccc(OCc3cn4c(Cl)cccc4n3)cc2)nc1OCC` [Example 224, ethyl 3-[1-[4-(5-chloroimidazo[1,2-a]pyridin-2-ylmethoxy)benzyl]-3-ethoxy-1H-pyrazol-4-yl]propionate] gave a melting point of 69 to 70 °C.

`CCOc1nn(Cc2ccc(OCc3cn4c(Cl)cccc4n3)cc2)cc1CCC(=O)O` [Example 225, 3-[1-[4-(5-chloroimidazo[1,2-a]pyridin-2-ylmethoxy)benzyl]-3-ethoxy-1H-pyrazol-4-yl]propionic acid] registered a melting point of 153 to 154 °C.

Consider `CCOc1nn(Cc2ccc(OCc3cn4c(OCC)cccc4n3)cc2)cc1CCC(=O)O` [Example 227, 3-[3-ethoxy-1-[4-(5-ethoxyimidazo[1,2-a]pyridin-2-ylmethoxy)benzyl]-1H-pyrazol-4-yl]propionic acid], for which the melting point is 197 to 198 °C.

`CCOc1nn(Cc2ccc(OCn3nnc4ccccc43)cc2)cc1CCC(=O)O` [Example 229, 3-[1-[4-(1H-benzotriazol-1-ylmethoxy)benzyl]-3-ethoxy-1H-pyrazol-4-yl]propionic acid] registered a melting point of 136 to 137 °C.

As for `CCOc1nn(Cc2ccc(OCc3ccc(-c4ccccc4)nc3)cc2)cc1CCC(=O)O` [Example 230, 3-[3-ethoxy-1-[4-(6-phenyl-3-pyridylmethoxy)benzyl]-1H-pyrazol-4-yl]propionic acid], the melting point was 140 to 141 °C.

In turn, `CCOC(=O)CCc1cn(Cc2ccc(OCc3cn4c(-c5ccccc5)cccc4n3)cc2)nc1OCC` [Example 231, ethyl 3-[3-ethoxy-1-[4-(5-phenylimidazo[1,2-a]pyridin-2-ylmethoxy)benzyl]-1H-pyrazol-4-yl]propionate] registered a melting point of 104 to 105 °C.

Consider `CCOc1nn(Cc2ccc(OCc3cn4c(-c5ccccc5)cccc4n3)cc2)cc1CCC(=O)O` [Example 232, 3-[3-ethoxy-1-[4-(5-phenylimidazo[1,2-a]pyridin-2-ylmethoxy)benzyl]-1H-pyrazol-4-yl]propionic acid], for which the melting point fell in the range of 160 to 161 °C.

In turn, `CCOc1nn(Cc2ccnc(OCc3nc(-c4ccco4)oc3C)c2)cc1CCC(=O)O` [Example 234, 3-[3-ethoxy-1-[2-[2-(2-furyl)-5-methyl-4-oxazolylmethoxy]-4-pyridylmethyl]-1H-pyrazol-4-yl]propionic acid] came in with a melting point of 138 to 139 °C.

In turn, `CCOc1nn(Cc2ccnc(OCc3cn4c(Cl)cccc4n3)c2)cc1CCC(=O)O` [Example 236, 3-[1-[2-(5-chloroimidazo[1,2-a]pyridin-2-ylmethoxy)-4-pyridylmethyl]-3-ethoxy-1H-pyrazol-4-yl]propionic acid] displayed a melting point of 160 to 161 °C.

With `CCOc1nn(Cc2ccnc(OCc3cn4c(-c5ccccc5)cccc4n3)c2)cc1CCC(=O)O` [Example 238, 3-[3-ethoxy-1-[2-(5-phenylimidazo[1,2-a]pyridin-2-ylmethoxy)-4-pyridylmethyl]-1H-pyrazol-4-yl]propionic acid], the melting point was in the range of 177 to 178 °C.

Regarding `CCOc1nn(Cc2ccc(OCc3cncc(-c4ccccc4)c3)cc2)cc1CCC(=O)O` [Example 240, 3-[3-ethoxy-1-[4-(5-phenyl-3-pyridylmethoxy)benzyl]-1H-pyrazol-4-yl]propionic acid], the melting point was in the range of 92 to 93 °C.

Regarding `CCOc1nn(Cc2cc(OCc3ccc4ccccc4n3)no2)cc1CCC(=O)O` [Example 242, 3-[3-ethoxy-1-[3-(2-quinolylmethoxy)-5-isoxazolylmethyl]-1H-pyrazol-4-yl]propionic acid], the melting point lay within 123 to 124 °C.

`CCOc1nn(Cc2ccc(OCc3nc(-c4ccccc4)ccc3Cl)cc2)cc1CCC(=O)O` [Example 244, 3-[1-[4-(3-chloro-6-phenyl-2-pyridylmethoxy)benzyl]-3-ethoxy-1H-pyrazol-4-yl]propionic acid] returned a melting point of 120 to 121 °C.

Consider `CCOc1nn(Cc2ccc(OCc3cccc(-c4ccccc4)n3)cc2)cc1CCC(=O)O` [Example 246, 3-[3-ethoxy-1-[4-(6-phenyl-2-pyridylmethoxy)benzyl]-1H-pyrazol-4-yl]propionic acid], for which the melting point fell in the range of 95 to 96 °C.

Take `CCOc1nn(Cc2ccc(OCc3nc4ccccc4n3C)cc2)cc1CCC(=O)O` [Example 248, 3-[3-ethoxy-1-[4-(1-methyl-1H-benzimidazol-2-ylmethoxy)benzyl]-1H-pyrazol-4-yl]propionic acid]: the melting point lay in the range of 177 to 178 °C.

`CCOc1nn(Cc2ccc(OCc3ccc(-c4ccccc4)cn3)cc2)cc1CCC(=O)O` [Example 250, 3-[3-ethoxy-1-[4-(5-phenyl-2-pyridylmethoxy)benzyl]-1H-pyrazol-4-yl]propionic acid] yielded a melting point of 127 to 128 °C.

Compound `CCOc1nn(Cc2ccc(OCc3ccc4ccccc4n3)nc2)cc1CCC(=O)O` [Example 252, 3-[3-ethoxy-1-[6-(2-quinolylmethoxy)-3-pyridylmethyl]-1H-pyrazol-4-yl]propionic acid] returned a melting point of 133 to 134 °C.

For `CCOc1nn(Cc2ccc(OCc3csc(-c4ccccc4)n3)nc2)cc1CCC(=O)O` [Example 254, 3-[3-ethoxy-1-[6-(2-phenyl-4-thiazolylmethoxy)-3-pyridylmethyl]-1H-pyrazol-4-yl]propionic acid], the melting point lay within 121 to 122 °C.

Compound `CCOc1nn(Cc2ccc(OCc3nc(-c4ccccc4)oc3C)cn2)cc1CCC(=O)O` [Example 258, 3-[3-ethoxy-1-[5-(5-methyl-2-phenyl-4-oxazolylmethoxy)-2-pyridylmethyl]-1H-pyrazol-4-yl]propionic acid] registered a melting point of 133 to 134 °C.

Compound `CCOc1nn(Cc2ccc(OCc3nc(-c4ccccc4)oc3C)cc2)cc1CC(=O)O` [Example 260, 3-ethoxy-1-[4-(5-methyl-2-phenyl-4-oxazolylmethoxy)benzyl]-1H-pyrazol-4-ylacetic acid] returned a melting point of 125 to 126 °C.

Take `CCOc1nn(Cc2ccc(OCc3nc(-c4ccco4)oc3C)nc2)cc1CC(=O)O` [Example 264, 3-ethoxy-1-[6-[2-(2-furyl)-5-methyl-4-oxazolylmethoxy]-3-pyridylmethyl]-1H-pyrazol-4-ylacetic acid]: the melting point was 155 to 156 °C.

Take `O=C(O)CCc1cn(Cc2cc(OCc3csc(-c4ccccc4)n3)cc(OCc3csc(-c4ccccc4)n3)c2)cc1-c1ccccc1` [Example 266, 3-[1-[3,5-bis(2-phenyl-4-thiazolylmethoxy)benzyl]-4-phenyl-3-pyrrolyl]propionic acid]: the melting point lay within 78 to 79 °C.

As to `Cc1oc(-c2ccccc2)nc1COc1ccc(Cn2cc(CCC(=O)O)c(-c3ccccc3)c2)cn1` [Example 268, 3-[1-[6-(5-methyl-2-phenyl-4-oxazolylmethoxy)-3-pyridylmethyl]-4-phenyl-3-pyrrolyl]propionic acid], the melting point was 123 to 124 °C.

For `CCOc1cc(Cn2cc(CCC(=O)O)c(-c3ccccc3)c2)cc(OCc2nc(-c3ccccc3)oc2C)c1` [Example 272, 3-[1-[3-ethoxy-5-(5-methyl-2-phenyl-4-oxazolylmethoxy)benzyl]-4-phenyl-3-pyrrolyl]propionic acid], the melting point is 126 to 127 °C.

`CCOc1cc(Cn2cc(CCC(=O)O)c(-c3ccccc3)c2)cc(OCc2csc(-c3ccccc3)n2)c1` [Example 274, 3-[1-[3-ethoxy-5-(2-phenyl-4-thiazolylmethoxy)benzyl]-4-phenyl-3-pyrrolyl]propionic acid] yielded a melting point of 109 to 110 °C.

On to `CCOc1cc(Cn2cc(CCC(=O)O)c(-c3ccccc3)c2)cc(OCc2csc(-c3cccs3)n2)c1` [Example 276, 3-[1-[3-ethoxy-5-[2-(2-thienyl)-4-thiazolylmethoxy)benzyl]-4-phenyl-3-pyrrolyl]propionic acid], for which the melting point is 104 to 105 °C.

`O=C(O)CCc1cn(Cc2ccc(OCc3ccc(-c4ccccc4)nc3)cc2)cc1-c1ccccc1` [Example 277, 3-[4-phenyl-1-[4-(6-phenyl-3-pyridylmethoxy)benzyl]-3-pyrrolyl]propionic acid]: the melting point was 185 to 186 °C.
